For the assay, the target named is Gamma-secretase. The assay can be described thus: Inhibition of Gamma-secretase. The format is protein-complex assay, Homo sapiens.
Broadly, the IC50 is the concentration at which inhibition is half-maximal. A low value points to greater potency in that assay. `O=C(NCc1ccc([N+](=O)[O-])cc1)OCC1CCc2ccccc2N1S(=O)(=O)c1ccc(Cl)cc1` (centres undefined) displayed an IC50 of 2960 nM.
The result for `CN1CCCC1CCNC(=O)OCC1CCc2ccccc2N1S(=O)(=O)c1ccc(Cl)cc1` (centres undefined) reads 504 nM; that for `CCN(CCC1CCCN1C)C(=O)OCC1CCc2ccccc2N1S(=O)(=O)c1ccc(Cl)cc1` (centres undefined), 253 nM.
The result for `O=C(NCc1ccncc1)OCC1CCc2ccccc2N1S(=O)(=O)c1ccc(Cl)cc1` (centres undefined) reads 1640 nM; that for `O=C(OCC1CCc2ccccc2N1S(=O)(=O)c1ccc(Cl)cc1)N1CCN(CCO)CC1` (centres undefined), 299 nM; that for `O=C(NCCO)OCC1CCc2ccccc2N1S(=O)(=O)c1ccc(Cl)cc1` (centres undefined), 4490 nM.
For `CCN(CCCN1CCCC1)C(=O)OCC1CCc2ccccc2N1S(=O)(=O)c1ccc(Cl)cc1` (centres undefined), the IC50 stood at 172 nM. Against the preceding compound, the IC50 is about 26-fold lower.
Compound `CCN(Cc1ccncc1)C(=O)OCC1CCc2ccccc2N1S(=O)(=O)c1ccc(Cl)cc1` (centres undefined) returned an IC50 of 88 nM.
`CCN(Cc1ccnc(N)c1)C(=O)OCC1CCc2ccccc2N1S(=O)(=O)c1ccc(Cl)cc1` (centres undefined) returned an IC50 of 580 nM.
Compound `CCCN1CCN(C(=O)OCC2CCc3ccccc3N2S(=O)(=O)c2ccc(Cl)cc2)CC1` (centres undefined) came in with an IC50 of 440 nM. The IC50 values of the last two compounds are within 1.5-fold of each other.
In turn, `O=C(OCC1CCc2cc(F)ccc2N1S(=O)(=O)c1ccc(Cl)cc1)N1CCC(N2CCCCC2)CC1` (centres undefined) displayed an IC50 above 1000 nM.
In turn, `O=C(OCC1CCc2ccc(F)cc2N1S(=O)(=O)c1ccc(Cl)cc1)N1CCC(N2CCCCC2)CC1` (centres undefined) returned an IC50 of 56 nM.
The result for `O=C(OCC1CCc2ccccc2N1S(=O)(=O)c1ccc(Cl)cc1)N1CCC(N2CCCCCC2)CC1` (centres undefined) reads 255 nM; that for `NC1CCN(C(=O)OCC2CCc3ccccc3N2S(=O)(=O)c2ccc(Cl)cc2)CC1` (centres undefined), 680 nM.
With `O=C(OCC1CCc2ccccc2N1S(=O)(=O)c1ccc(Cl)cc1)N1CCC(N2CCCC2)CC1` (centres undefined) the figure was 290 nM; with `O=C(OCC1CCc2c(F)cc(F)cc2N1S(=O)(=O)c1ccc(Cl)cc1)N1CCC(N2CCCCC2)CC1` (centres undefined), 219 nM; with `O=C(OCC1CCc2c(F)ccc(F)c2N1S(=O)(=O)c1ccc(Cl)cc1)N1CCC(N2CCCCC2)CC1` (centres undefined), 217 nM.
Consider `CN(C)C1CCN(C(=O)OCC2CCc3ccccc3N2S(=O)(=O)c2ccc(Cl)cc2)CC1` (centres undefined), for which half-maximal inhibition (IC50) required 629 nM.
With `O=C(NCCCN1CCCC1)OCC1CCc2ccccc2N1S(=O)(=O)c1ccc(Cl)cc1` (centres undefined) the figure was 394 nM; with `O=C(OCC1CCc2ccccc2N1S(=O)(=O)c1ccc(Cl)cc1)N1CCN(C2CCCCC2)CC1` (centres undefined), 540 nM; with `O=C(NCCc1ccccc1)OCC1CCc2ccccc2N1S(=O)(=O)c1ccc(Cl)cc1` (centres undefined), 1100 nM.
As for `O=C(OCC1CCc2ccccc2N1S(=O)(=O)c1ccc(Cl)cc1)N1CCC(N2CCCCC2)CC1` (single isomer, unassigned; enantiomer a), inhibition was half-maximal at 39 nM (IC50).
The compound `O=C(OCC1CCc2ccccc2N1S(=O)(=O)c1ccc(Cl)cc1)N1CCC(N2CCCCC2)CC1` (single isomer, unassigned; enantiomer b) yielded an IC50 above 1000 nM.
In the case of `O=C(OCC1CCc2ccccc2N1S(=O)(=O)c1ccc(Cl)cc1)N1CCC(N2CCCCC2)CC1` (stereo in doubt; 26), the concentration for half-maximal inhibition (IC50) stood at 73 nM.

For the origin of these results see ChEMBL document CHEMBL1138382, “Tetrahydroquinoline sulfonamides as gamma-secretase inhibitors” (Bioorg Med Chem Lett, 2007).
